Active and inactive are the calls of the source. The calls are words filed in the database; no cut-off is given here.
Assays:
[1] = target: Protein cereblon/ALK tyrosine kinase receptor (Homo sapiens, UniProt Q96SW2+Q9UM73); assay: PROTAC activity at CRBN/ALK in human NCI-H3122 cells assessed as induction of ALK degradation incubated for 24 hrs by Western blot analysis; format: cell-based
[2] = target: ALK tyrosine kinase receptor (Homo sapiens) (UniProt Q9UM73); assay: Inhibition of ALK (unknown origin) at 0.05 uM by LANCE Ultra TR-FRET assay relative to control
Chain of ALK tyrosine kinase receptor (Homo sapiens) (Q9UM73 19-1620 limits assumed): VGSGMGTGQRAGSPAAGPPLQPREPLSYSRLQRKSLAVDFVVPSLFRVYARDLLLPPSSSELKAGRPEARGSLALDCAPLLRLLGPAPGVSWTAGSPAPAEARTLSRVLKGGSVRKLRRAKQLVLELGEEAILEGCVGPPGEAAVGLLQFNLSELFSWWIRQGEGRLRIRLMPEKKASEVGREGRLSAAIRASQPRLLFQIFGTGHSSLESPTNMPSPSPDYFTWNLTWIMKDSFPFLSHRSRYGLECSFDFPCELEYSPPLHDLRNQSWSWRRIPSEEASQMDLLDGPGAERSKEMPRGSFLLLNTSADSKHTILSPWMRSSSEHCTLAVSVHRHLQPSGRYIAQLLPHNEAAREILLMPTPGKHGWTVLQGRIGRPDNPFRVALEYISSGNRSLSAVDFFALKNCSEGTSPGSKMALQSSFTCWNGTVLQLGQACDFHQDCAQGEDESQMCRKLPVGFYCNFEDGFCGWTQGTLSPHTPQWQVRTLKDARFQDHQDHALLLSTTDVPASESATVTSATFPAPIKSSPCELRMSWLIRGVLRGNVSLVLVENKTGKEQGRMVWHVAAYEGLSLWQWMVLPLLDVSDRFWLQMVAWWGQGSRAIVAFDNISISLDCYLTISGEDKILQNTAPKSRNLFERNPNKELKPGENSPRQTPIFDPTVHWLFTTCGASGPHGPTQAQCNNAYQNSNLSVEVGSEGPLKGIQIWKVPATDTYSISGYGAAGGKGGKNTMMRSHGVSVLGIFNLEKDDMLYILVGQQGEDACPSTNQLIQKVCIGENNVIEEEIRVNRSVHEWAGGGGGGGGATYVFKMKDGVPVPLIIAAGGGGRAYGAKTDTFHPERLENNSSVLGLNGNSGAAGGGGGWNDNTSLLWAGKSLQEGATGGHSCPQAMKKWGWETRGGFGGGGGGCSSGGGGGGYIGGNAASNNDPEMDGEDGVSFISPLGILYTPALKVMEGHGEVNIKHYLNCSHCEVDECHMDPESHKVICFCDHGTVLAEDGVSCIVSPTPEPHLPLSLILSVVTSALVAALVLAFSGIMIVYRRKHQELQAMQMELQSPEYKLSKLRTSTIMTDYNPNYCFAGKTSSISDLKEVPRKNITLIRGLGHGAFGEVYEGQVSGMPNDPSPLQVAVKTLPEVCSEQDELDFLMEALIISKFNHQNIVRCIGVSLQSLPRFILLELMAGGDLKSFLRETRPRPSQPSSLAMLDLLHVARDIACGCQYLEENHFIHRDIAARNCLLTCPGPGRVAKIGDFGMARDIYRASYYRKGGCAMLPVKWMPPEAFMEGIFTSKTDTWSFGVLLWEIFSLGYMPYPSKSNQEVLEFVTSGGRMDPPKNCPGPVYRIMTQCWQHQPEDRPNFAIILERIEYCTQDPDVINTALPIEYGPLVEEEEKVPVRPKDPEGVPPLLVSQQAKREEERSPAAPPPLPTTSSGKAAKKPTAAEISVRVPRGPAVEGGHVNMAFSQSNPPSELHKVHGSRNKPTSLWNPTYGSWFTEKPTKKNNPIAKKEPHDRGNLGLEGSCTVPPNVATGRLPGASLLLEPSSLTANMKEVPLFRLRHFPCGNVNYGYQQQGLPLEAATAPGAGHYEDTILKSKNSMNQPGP

[3] = target: ALK tyrosine kinase receptor (Homo sapiens) (UniProt Q9UM73); assay: Inhibition of ALK (unknown origin) at 1 uM by LANCE Ultra TR-FRET assay relative to control
NCI-H3122 [4] = assay: Antiproliferative activity against human NCI-H3122 cells assessed as inhibition of cell growth incubated for 5 days in presence of 2-(4-(6-((6-acetyl-8-cyclopentyl-5-methyl-7-oxo-7,8-dihydropyrido[2,3-d]pyrimidin-2-yl)amino)pyridin-3-yl)piperazin-1-yl)-N-(2-mercaptoethyl)acetamide by MTT assay; format: functional, cell-based; conditions: NCI-H3122, 120 h
NCI-H3122 [5] = assay: Antitumor activity against human NCI-H3122 cells xenografted in BALB/c nude mouse assessed as reduction in tumor volume at 50 mg/kg, IG administered once daily for 18 days and measured after 12 hrs of last dose; format: functional, organism-based; conditions: time 444.0 hrs
[6] = Toxicity in BALB/c nude mouse xenografted with human NCI-H3122 cells assessed as effect on lung function at 50 mg/kg, IG administered once daily for 18 days by H and E staining based assay; format: organism-based; conditions: in vivo, po, 432 h, time 18 day
[7] = Toxicity in BALB/c nude mouse xenografted with human NCI-H3122 cells assessed as effect on liver function at 50 mg/kg, IG administered once daily for 18 days by H and E staining based assay; format: organism-based; conditions: in vivo, po, 432 h, time 18 day
[8] = Toxicity in BALB/c nude mouse xenografted with human NCI-H3122 cells assessed as effect on kidney function at 50 mg/kg, IG administered once daily for 18 days by H and E staining based assay; format: organism-based; conditions: in vivo, po, 432 h, time 18 day
[9] = Toxicity in BALB/c nude mouse xenografted with human NCI-H3122 cells assessed as effect on spleen function at 50 mg/kg, IG administered once daily for 18 days by H and E staining based assay; format: organism-based; conditions: in vivo, po, 432 h, time 18 day
NCI-H3122 [10] = assay: Antitumor activity against human NCI-H3122 cells xenografted in BALB/c nude mouse assessed as tumor growth inhibition at 50 mg/kg, IG administered once daily for 18 days and measured after 12 hrs of last dose relative to control; format: functional; conditions: NCI-H3122, po, time 444 hrs, read-out: TGI
[11] = Toxicity in BALB/c nude mouse xenografted with human NCI-H3122 cells assessed as tolerance at 25 to 50 mg/kg, IG administered once daily for 18 days; format: organism-based; conditions: in vivo, po, 432 h, dose 25-50 mg/kg, time 18 day
[12] = Toxicity in BALB/c nude mouse xenografted with human NCI-H3122 cells assessed as effect on heart function at 50 mg/kg, IG administered once daily for 18 days and measured after 12 hrs of last dose by H and E staining based assay; format: organism-based; conditions: in vivo, po, 444 h
[13] = Toxicity in BALB/c nude mouse xenografted with human NCI-H3122 cells assessed as effect on visceral heart morphology at 50 mg/kg, IG administered once daily for 18 days and measured after 12 hrs of last dose by H and E staining based assay; format: organism-based; conditions: in vivo, po, 444 h
[14] = Toxicity in BALB/c nude mouse xenografted with human NCI-H3122 cells assessed as effect on visceral kidney morphology at 50 mg/kg, IG administered once daily for 18 days and measured after 12 hrs of last dose by H and E staining based assay; format: organism-based; conditions: in vivo, po, 444 h
[15] = Toxicity in BALB/c nude mouse xenografted with human NCI-H3122 cells assessed as effect on visceral liver morphology at 50 mg/kg, IG administered once daily for 18 days and measured after 12 hrs of last dose by H and E staining based assay; format: organism-based; conditions: in vivo, po, 444 h
Mus musculus = assay: In vivo PROTAC activity at CRBN/EML4-ALK in BALB/c nude mouse xenografted with human NCI-H3122 cells assessed as reduction in EML4-ALK protein expression in tumor at 50 mg/kg, IG administered once daily for 18 days and measured after 12 hrs of last dose by immunohistochemical analysis; format: functional, organism-based; conditions: time 444.0 hrs
[16] = Toxicity in BALB/c nude mouse xenografted with human NCI-H3122 cells assessed as effect on visceral spleen morphology at 50 mg/kg, IG administered once daily for 18 days and measured after 12 hrs of last dose by H and E staining based assay; format: organism-based; conditions: in vivo, po, 444 h
[17] = Toxicity in BALB/c nude mouse xenografted with human NCI-H3122 cells assessed as reduction in body weight at 25 to 50 mg/kg, IG administered once daily for 18 days; format: organism-based; conditions: in vivo, po, 432 h, dose 25-50 mg/kg, time 18 day
NCI-H3122 [18] = assay: Antiproliferative activity against human NCI-H3122 cells assessed as inhibition of cell growth incubated for 5 days by MTT assay; format: functional, cell-based; conditions: NCI-H3122, 120 h
NCI-H3122 [19] = assay: Antitumor activity against human NCI-H3122 cells xenografted in BALB/c nude mouse assessed as reduction in tumor weight at 50 mg/kg, IG administered once daily for 18 days and measured after 12 hrs of last dose; format: functional, organism-based; conditions: time 444.0 hrs
[20] = Toxicity in BALB/c nude mouse xenografted with human NCI-H3122 cells assessed as effect on visceral lung morphology at 50 mg/kg, IG administered once daily for 18 days and measured after 12 hrs of last dose by H and E staining based assay; format: organism-based; conditions: in vivo, po, 444 h

Chain of Protein cereblon/ALK tyrosine kinase receptor (Q9UM73 whole entry): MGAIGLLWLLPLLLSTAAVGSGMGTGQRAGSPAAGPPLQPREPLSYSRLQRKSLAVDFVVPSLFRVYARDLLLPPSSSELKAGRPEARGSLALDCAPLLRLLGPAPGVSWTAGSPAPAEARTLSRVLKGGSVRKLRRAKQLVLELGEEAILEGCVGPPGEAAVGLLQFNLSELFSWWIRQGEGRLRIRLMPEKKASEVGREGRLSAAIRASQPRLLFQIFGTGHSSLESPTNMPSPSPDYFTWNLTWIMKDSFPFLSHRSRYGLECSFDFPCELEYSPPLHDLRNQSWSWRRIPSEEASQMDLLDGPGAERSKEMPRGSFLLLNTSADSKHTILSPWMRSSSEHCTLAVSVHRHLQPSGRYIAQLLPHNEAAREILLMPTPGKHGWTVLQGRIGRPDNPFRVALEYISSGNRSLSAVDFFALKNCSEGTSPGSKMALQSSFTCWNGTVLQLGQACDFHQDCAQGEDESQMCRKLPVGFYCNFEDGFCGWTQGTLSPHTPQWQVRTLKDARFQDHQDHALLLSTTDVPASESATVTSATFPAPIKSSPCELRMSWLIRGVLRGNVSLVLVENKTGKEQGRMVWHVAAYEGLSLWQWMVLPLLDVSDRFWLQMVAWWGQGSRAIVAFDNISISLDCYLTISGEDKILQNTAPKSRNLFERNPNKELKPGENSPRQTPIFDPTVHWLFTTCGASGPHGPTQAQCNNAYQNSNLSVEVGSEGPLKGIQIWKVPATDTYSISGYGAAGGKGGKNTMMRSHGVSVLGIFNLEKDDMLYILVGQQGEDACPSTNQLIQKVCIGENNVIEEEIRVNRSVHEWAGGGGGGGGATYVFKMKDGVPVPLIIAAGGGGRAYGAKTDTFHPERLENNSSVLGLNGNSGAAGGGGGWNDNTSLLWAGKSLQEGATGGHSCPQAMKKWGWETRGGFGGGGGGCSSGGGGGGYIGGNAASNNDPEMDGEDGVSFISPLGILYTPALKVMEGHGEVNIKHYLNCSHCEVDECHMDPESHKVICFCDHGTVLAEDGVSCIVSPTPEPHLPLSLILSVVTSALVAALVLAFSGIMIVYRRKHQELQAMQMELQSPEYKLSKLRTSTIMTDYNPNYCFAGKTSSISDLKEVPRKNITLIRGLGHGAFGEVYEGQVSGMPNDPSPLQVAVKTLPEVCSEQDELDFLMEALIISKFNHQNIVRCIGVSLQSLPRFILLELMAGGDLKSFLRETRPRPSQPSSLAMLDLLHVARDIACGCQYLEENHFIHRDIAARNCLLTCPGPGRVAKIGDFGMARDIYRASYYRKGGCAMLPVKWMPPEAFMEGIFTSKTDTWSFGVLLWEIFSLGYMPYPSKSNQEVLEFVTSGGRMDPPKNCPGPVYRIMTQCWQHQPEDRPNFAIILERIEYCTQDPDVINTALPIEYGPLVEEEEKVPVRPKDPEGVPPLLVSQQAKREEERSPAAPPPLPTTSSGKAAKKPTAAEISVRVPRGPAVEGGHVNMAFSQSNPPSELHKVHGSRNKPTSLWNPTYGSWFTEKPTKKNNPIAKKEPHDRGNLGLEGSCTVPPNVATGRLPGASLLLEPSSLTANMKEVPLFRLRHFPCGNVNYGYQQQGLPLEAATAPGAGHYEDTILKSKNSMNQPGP
Chain of Protein cereblon/ALK tyrosine kinase receptor (Q96SW2 whole entry): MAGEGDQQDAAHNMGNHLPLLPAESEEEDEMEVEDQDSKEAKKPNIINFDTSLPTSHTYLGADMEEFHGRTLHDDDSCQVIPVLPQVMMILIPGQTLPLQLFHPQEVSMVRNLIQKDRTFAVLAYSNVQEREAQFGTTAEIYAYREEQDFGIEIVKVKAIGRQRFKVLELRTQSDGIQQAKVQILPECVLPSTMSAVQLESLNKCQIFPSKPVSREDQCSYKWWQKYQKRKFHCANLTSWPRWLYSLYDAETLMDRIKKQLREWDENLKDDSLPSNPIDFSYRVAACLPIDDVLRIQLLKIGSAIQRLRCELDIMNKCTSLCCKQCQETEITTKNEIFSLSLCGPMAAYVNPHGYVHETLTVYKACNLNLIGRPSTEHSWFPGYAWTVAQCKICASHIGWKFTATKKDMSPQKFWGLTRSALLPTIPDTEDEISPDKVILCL

EC50 [1]: 690 nM
inhibition [2]: 82.2%
inhibition [3]: 93%
IC50 (NCI-H3122 [4]): 190 nM
IC50 (NCI-H3122 [18]): 380 nM
Structure (SMILES): Cc1cc(Nc2ncc(Cl)c(Nc3ccccc3S(=O)(=O)C(C)C)n2)c(OC(C)C)cc1C1CCN(C(=O)CCCCCCC(=O)N(CCS)CC(=O)NCCNc2cccc3c2C(=O)N(C2CCC(=O)NC2=O)C3=O)CC1 (stereo unspecified)
Activity (NCI-H3122 [5]): Active
Activity [6]: Non-Toxic
Activity [7]: Non-Toxic
Activity [8]: Non-Toxic
Activity [9]: Non-Toxic
inhibition in vivo at 50 mg/kg (NCI-H3122 [10]): 51.1%
Activity [11]: Non-Toxic
Activity [12]: Non-Toxic
Activity [13]: Non-Toxic
Activity [14]: Non-Toxic
Activity [15]: Non-Toxic
Activity (Mus musculus): Active
Activity [16]: Non-Toxic
Activity [17]: Non-Toxic
Activity (NCI-H3122 [19]): Active
Activity [20]: Non-Toxic

Source: ChEMBL document CHEMBL5321200, “Discovery of the GSH responsive "Y-PROTACs" targeting ALK and CDK4/6 as a potential treatment for cancer” (Eur J Med Chem, 2023)
